Reference: patent US9101620B2, “Polymorph of 3-(substituteddihydroisoindolinone-2-yl)-2,6-dioxopiperidine, and pharmaceutical compositions thereof” (Nanjing Cavendish Bio-Engineering Technology Co., Ltd., priority 2009, dated 2015)

Assays:
[1] = Accelerated test (40° C., 75% relative humidity); format: physicochemical; settings: 40° C. and 75% relative humidity
Description: (§1) The conditions and methods of related substance test involved in this invention were in accordance with HPLC (Appendix VD of Chinese Pharmacopoeia Edition 2005).
(§2) Chromatographic conditions and system applicability: octadecylsilane bonded silica as the filler; 0.01 mol/L of potassium dihydrogen phosphate (adjusted to pH 3.5 by phosphoric acid)-methanol-acetonitrile (80:15:5) as the mobile phase; detection wavelength was 240 nm; the number of theoretical plates should be not less than 2000, calculated according to the peak of 3-(4-amino-1-oxo-1,3-dihydro-2H-isoindole-2-yl)-piperidine-2,6-dione. The resolution of the peak of 3-(4-amino-1-oxo-1,3-dihydro-2H-isoindole-2-yl)-piperidine-2,6-dione from the peaks of adjacent impurities should meet requirements.
(§3) The raw material of Polymorph I of 3-(4-amino-1-oxo-1,3-dihydro-2H-isoindole-2-yl)-piperidine-2,6-dione (hemihydrate) was hermetically packed in plastic bags of polyethylene film and put in thermostatic and humidostatic incubator at 40±2° C. and 75±5% relative humidity for six months. Sample was tested at the end of the 1st, 2nd, 3rd and 6th month respectively and the results were contrasted with that of the zeroth month. Results were listed in Tab. 5. After accelerated test at 40° C. for six months, the X-ray powder diffraction pattern was shown in FIG. 11; DSC diagram was in FIG. 12-1; TGA diagram was in FIG. 12-2
as §3, with “Polymorph II” for “Polymorph I”, “3-(4-amino-1-oxo-1,3-dihydro-2H-isoindole-2-yl)-piperidine-2,6-dione” for “3-(4-amino-1-oxo-1,3-dihydro-2H-isoindole-2-yl)-piperidine-2,6-dione (hemihydrate)”, “Tab. 10.” for “Tab. 5.”, “FIG. 22;” for “FIG. 11;”, “FIG. 23-1;” for “FIG. 12-1;”, “FIG. 23-2” for “FIG. 12-2”
as §3, with “Polymorph III” for “Polymorph I”, “3-(4-amino-1-oxo-1,3-dihydro-2H-isoindole-2-yl)-piperidine-2,6-dione” for “3-(4-amino-1-oxo-1,3-dihydro-2H-isoindole-2-yl)-piperidine-2,6-dione (hemihydrate)”, “Tab. 15.” for “Tab. 5.”, “FIG. 33;” for “FIG. 11;”, “FIG. 34-1;” for “FIG. 12-1;”, “FIG. 34-2” for “FIG. 12-2”

[2] = Photostability test (strong illumination); format: physicochemical; settings: for Appearance / Content / Related substance: 4500±500 Lx; for Variation of appearance and content (in words): photostability (illumination) test, summary
Description: as §1, §2
The Polymorph I of 3-(4-amino-1-oxo-1,3-dihydro-2H-isoindole-2-yl)-piperidine-2,6-dione (hemihydrate) was distributed homogeneously in open petri dish with the thickness of the raw material not more than 5 mm, and the distance was adjusted to make illumination intensity at 4500±500 Lx. Sample was tested at the 5th and 10th day respectively and the results were contrasted with that of the Day 0. Results were listed in Tab. 2. After strong illumination for 10 days, the X-ray powder diffraction pattern was shown in FIG. 5; DSC diagram of the Polymorph I of 3-(4-amino-1-oxo-1,3-dihydro-2H-isoindole-2-yl)-piperidine-2,6-dione (hemihydrate) was in FIG. 6.
The Polymorph II of 3-(4-amino-1-oxo-1,3-dihydro-2H-isoindole-2-yl)-piperidine-2,6-dione was distributed homogeneously in open petri dish with the thickness of the raw material not more than 5 mm and the distance was adjusted to make illumination intensity at 4500±500 Lx. Sample was tested at the 5th and 10th day respectively and the results were contrasted with that of the Day 0. Results were listed in Tab. 7. After strong illumination for 10 days, the X-ray powder diffraction pattern was shown in FIG. 16; DSC diagram was in FIG. 17
The Polymorph III of 3-(4-amino-1-oxo-1,3-dihydro-2H-isoindole-2-yl)-piperidine-2,6-dione was distributed homogeneously in open petri dish with the thickness of the raw material not more than 5 mm and the distance was adjusted to make illumination intensity at 4500±500 Lx. Sample was tested at the 5th and 10th day respectively and the results were contrasted with that of the Day 0. Results were listed in Tab. 12. After strong illumination for 10 days, the X-ray powder diffraction pattern was shown in FIG. 27; DSC diagram was in FIG. 28

Structure (SMILES) | Appearance ([1]; 0 months) | Content ([1]; 0 months) | Related substance ([1]; 0 months) | Appearance ([1]; 1 month) | Content ([1]; 1 month) | Related substance ([1]; 1 month) | Appearance ([1]; 2 months) | Content ([1]; 2 months) | Related substance ([1]; 2 months) | Appearance ([1]; 3 months) | Content ([1]; 3 months) | Related substance ([1]; 3 months) | Appearance ([1]; 6 months) | Content ([1]; 6 months) | Related substance ([1]; 6 months) | Appearance ([2]; 0 days) | Content ([2]; 0 days) | Related substance ([2]; 0 days) | Appearance ([2]; 5 days) | Content ([2]; 5 days) | also measured
Nc1cccc2c1CN(C1CCC(=O)NC1=O)C2=O (single isomer, unassigned) [Polymorph III, 3-(4-amino-1-oxo-1,3-dihydro-2H-isoindole-2-yl)-piperidine-2,6-dione] | off-white powder | 99.86% | 0.07% | off-white powder | 99.81% | 0.07% | off-white powder | 99.76% | 0.07% | off-white powder | 99.71% | 0.08% | off-white powder | 99.62% | 0.08% | off-white powder | 99.86% | 0.07% | off-white powder | 99.85% | Related substance ([2]; 5 days): 0.07%; Appearance ([2]; 10 days): off-white powder; Content ([2]; 10 days): 99.85%; Related substance ([2]; 10 days): 0.07%; Variation of appearance and content (in words) [2]: few significant variation
Nc1cccc2c1CN(C1CCC(=O)NC1=O)C2=O (single isomer, unassigned) [Polymorph I, 3-(4-amino-1-oxo-1,3-dihydro-2H-isoindole-2-yl)-piperidine-2,6-dione] | Off-white powder | 99.87% | 0.05% | Off-white powder | 99.85% | 0.05% | Off-white powder | 99.81% | 0.05% | Off-white powder | 99.78% | 0.06% | Off-white powder | 99.75% | 0.07% | off-white powder | 99.87% | 0.05% | off-white powder | 99.85% | Related substance ([2]; 5 days): 0.05%; Appearance ([2]; 10 days): off-white powder; Content ([2]; 10 days): 99.86%; Related substance ([2]; 10 days): 0.05%; Variation of appearance and content (in words) [2]: few significant variation
Nc1cccc2c1CN(C1CCC(=O)NC1=O)C2=O (single isomer, unassigned) [Polymorph II, 3-(4-amino-1-oxo-1,3-dihydro-2H-isoindole-2-yl)-piperidine-2,6-dione] | off-white powder | 99.89% | 0.09% | off-white powder | 99.85% | 0.09% | off-white powder | 99.77% | 0.10% | off-white powder | 99.72% | 0.10% | off-white powder | 99.68% | 0.12% | off-white powder | 99.89% | 0.09% | off-white powder | 99.89% | Related substance ([2]; 5 days): 0.09%; Appearance ([2]; 10 days): off-white powder; Content ([2]; 10 days): 99.88%; Related substance ([2]; 10 days): 0.09%; Variation of appearance and content (in words) [2]: few significant variation
